Assay results from patent publication US20130203069A1, “Dynamic Assay for Maintenance and Disruption of Tissue Level Organization and Architecture” (THE REGENTS OF THE UNIVERSITY OF CALIFORNIA, priority 2012, published 2013).

Legend:
[1] = system: HMEC strain 240L (LEPs and MEPs); assay: Microwell self-organization assay; assay type: cell-based, human; details: for self-organization of LEPs and MEPs: actomyosin inhibitors (ML-7 3×10^−6 M, Y27632 10^−5 M) added at the beginning, refreshed every 24 h, over 48 h; for organization measured at 48 h: inhibitor added a single time after 24 h, when organization was already underway; for self-organization at the 24-h time point / differences in LEP:MEP ratios in the core and at the periphery by 48 h: inhibitor added a single time at 0 h; for differences in LEP:MEP ratios in the core and at the periphery by 48 h: P<0.01
Description: Micropatterned substrata were made according to Tan et al. (2004) “Simple approach to micropattern cells on common culture substrates by tuning substrate wettability”. Tissue Eng 10:865-872, hereby incorporated by reference. Polydimethylsiloxane (PDMS) microwell arrays were formed by curing prepolymer with base:cure ratio of 10:1 (Sylguard 184) against a prepatterned master. The arrays of wells were peeled away and were cut into 1-cm^2 pieces that were affixed with a few microliters of uncured PDMS to the bottom of a 24-well plate (Mitek). Plates with microwells were UV oxidized for 7 min (UVO-Cleaner 42; Jelight Co.), blocked with 2 mg/mL BSA (Sigma) for 1 h under vacuum, and rinsed with PBS and M87A. All self-organizing experiments were conducted with HMEC strain 240L. Flow cytometry-sorted HMEC were stained with CM-DiI, SP-DiOC18 (Steinberg M S, (1962) On the mechanism of tissue reconstruction by dissociated cells. I. Population kinetics, differential adhesiveness, and the absence of directed migration. Proc Natl Acad Sci USA 48:1577-1582), or DiIC18(Wei C, et al., (2007) Self-organization and branching morphogenesis of primary salivary epithelial cells. Tissue Eng 13:721-735)-DS (Invitrogen), used at 1:1,000 in PBS for 5 min at 37° C. followed by 15 min at 4° C. Cells were washed extensively with medium after staining Dye-stained HMEC were mixed at a ratio of 1:1 (LEP:MEP) or 1:1 (randomly stained green:red HMEC cultures) and were resuspended in M87A at 1 million cells/mL. […] HMEC were imaged at 0, 24, or 48 h with a spinning disk confocal microscope (Carl Zeiss). Red and green fluorescence channels in images taken at the ˜25-μm z axis positions of 30 wells from each condition at each time point were binarized using the Threshold function, merged into a Z-stack, and then averaged using ImageJ software (National Institutes of Health). Gray-scaled average images corresponding to LEP and MEP were merged into a single image with red or green look-up tables applied to each average image.
Heat maps were generated. Briefly, heat maps were normalized to the highest intensity value and were used to quantify sorting using the expression log2(mean green pixel intensity/mean red pixel intensity). A script was written using MATLAB (Mathworks) to plot differential intensity as a function of the distance from the center and to compute the average plot from θ of 0-360° (Fig S2).

[2] = system: HMEC cell surfaces; assay: Recombinant E-cadherin (recEcad) binding to HMEC cell surfaces by flow cytometry; assay type: cell-based, human; details: 6 h pretreatment/preincubation of HMEC in suspension; recEcad 100 μg/mL 1 h on ice
Description: (§1) To determine effects of inhibitors, Y27632 at 10−5 M (Calbiochem) or ML-7 at 3×10−6 M (Calbiochem) was added to HMEC medium for 6 h at 37° C. (5% CO2) before trypsinization and subsequent measurement of E-cadherin by FACS. To measure the ability of recEcad to bind to HMEC in presence of inhibitors, cells were suspended in their medium in Falcon tubes (to prevent adhesion to a culture surface) in the presence of Y27632 at 10−5M (Calbiochem), ML-7 at 3×10−6M (Calbiochem), or anti-E-cadherin (100 μg/mL; clone HECD-1; Invitrogen), or in calcium-free medium for 6 h at 37° C. (5% CO2). recEcad conjugated to human IgG Fc region was added at 100 μg/mL for 1 h on ice. HMEC then were washed with medium and incubated with anti-human IgG-A633 (1:500; Invitrogen) in their own medium.

[3] = system: LEPs; assay: Atomic force microscopy measurement of stiffness (LEPs); assay type: cell-based, human; details: 45 cells per condition
Description: (§2) Once samples were equilibrated to 25° C., cell deformity was measured, and stiffness was calculated as previously described (Alcaraz J, et al., (2008) Laminin and biomimetic extracellular elasticity enhance functional differentiation in mammary epithelia. EMBO J 27:2829-2838.). The resulting data were plotted using Prism(GraphPad Software) (n=45).

[4] = system: E-cadherin; assay: E-cadherin surface expression on LEPs and MEPs by flow cytometry; assay type: cell-based, human; details: Y27632 10−5 M or ML-7 3×10−6 M in HMEC medium for 6 h
Description: E-cadherin expression on LEP and MEP was measured by addition of anti-E-cadherin-A647 (clone 67A4; Biolegend) to the above mixture at 1:50.
as §1

[5] = system: MEPs; assay: Atomic force microscopy measurement of stiffness (MEPs); assay type: cell-based, human; details: 45 cells per condition
Description: as §2

[6] = system: mouse mammary organoids; details: time-lapse imaging studies; less catastrophic than in the HMEC microwell assay; cited from earlier work
[7] = system: MDCK; details: MDCK epithelial cell line (Sahai et al. 2002); cited from earlier work
[8] = system: HCT116; details: HCT116 epithelial cell line (Sahai et al. 2002); cited from earlier work

Compound	self-organization of LEPs and MEPs [1]	organization measured at 48 h [1]	self-organization at the 24-h time point [1]	differences in LEP:MEP ratios in the core and at the periphery by 48 h [1]	recEcad binding to HMEC surfaces [2]	LEP stiffness [3]	lineage-specific differences in E-cadherin expression [4]	MEP stiffness [5]	bilayered organization of mouse mammary organoids [6]	breakdown and recycling of mature adherens junctions [7]	breakdown and recycling of mature adherens junctions [8]
O=S(=O)(c1cccc2c(I)cccc12)N1CCCNCC1 [ML-7]	prevented self-organization	obliterated organization	prevented self-organization	differences in LEP:MEP ratios in the core and at the periphery were observed	did not prevent	caused softening	did not change	unaffected	disrupted the clean bilayered organization	–	–
C[C@@H](N)[C@H]1CC[C@H](C(=O)Nc2ccncc2)CC1 [Y27632]	prevented self-organization	preserved the self-organized LEP cores	prevented self-organization	differences in LEP:MEP ratios in the core and at the periphery were observed	did not prevent	caused softening	did not change	unaffected	disrupted the clean bilayered organization	unable to break down and recycle	unable to break down and recycle
